Measurements published in ChEMBL document CHEMBL4190187, “Discovery of pyrazolopyrimidine derivatives as novel inhibitors of ataxia telangiectasia and rad3 related protein (ATR)” (Bioorg Med Chem Lett, 2017).

Legend:
[1] = biological target: Serine/threonine-protein kinase PAK 3 (Homo sapiens) (UniProt O75914); assay: Inhibition of recombinant full-length human PAK3 at 1 uM using RRRLSFAEPG as substrate after 40 mins in presence of [gamma-33P]ATP by scintillation counting method
[2] = system: Hepatocyte growth factor receptor (Homo sapiens), P08581 [Y1248H]; assay: Inhibition of recombinant human Met Y1248H mutant (974 to end residues) at 1 uM using KKKGQEEEYVFIE as substrate after 40 mins in presence of [gamma-33P]ATP by scintillation counting method
[3] = biological target: Serine/threonine-protein kinase ATR (Homo sapiens, UniProt Q13535); assay: Inhibition of human recombinant FLAG-tagged full length ATR expressed in mammalian cell line co-expressing human recombinant cMyc-tagged full length ATRIP
[4] = biological target: Serine/threonine-protein kinase TAO3 (Homo sapiens) (UniProt Q9H2K8); assay: Inhibition of recombinant human TAO3 (1 to 411 residues) at 1 uM using myelin basic protein as substrate after 40 mins in presence of [gamma-33P]ATP by scintillation counting method
[5] = biological target: TRAF2 and NCK-interacting protein kinase (Homo sapiens) (UniProt Q9UKE5); assay: Inhibition of recombinant human TNIK (1 to 367 residues) at 1 uM using RLGRDKYKTLRQIRQ as substrate after 40 mins in presence of [gamma-33P]ATP by scintillation counting method
[6] = biological target: Serine/threonine-protein kinase ULK2 (Homo sapiens) (UniProt Q8IYT8); assay: Inhibition of recombinant human ULK2 (1 to 306 residues) at 1 uM using casein as substrate after 40 mins in presence of [gamma-33P]ATP by scintillation counting method
[7] = biological target: Ephrin type-A receptor 2 (Homo sapiens) (UniProt P29317); assay: Inhibition of recombinant human EPHA2 (596 to 900 residues) at 1 uM using poly(Glu,Tyr) 4:1 as substrate after 40 mins in presence of [gamma-33P]ATP by scintillation counting method
[8] = biological target: Insulin-like growth factor 1 receptor (Homo sapiens) (UniProt P08069); assay: Inhibition of recombinant human IGF-1R (959 to end residues) at 1 uM using KKKSPGEYVNIEFG as substrate after 40 mins in presence of [gamma-33P]ATP by scintillation counting method
[9] = biological target: Insulin-like growth factor 1 receptor (Homo sapiens) (UniProt P08069); assay: Inhibition of recombinant human activated IGF-1R (959 to end residues) at 1 uM using KKKSPGEYVNIEFG as substrate after 40 mins in presence of [gamma-33P]ATP by scintillation counting method
[10] = biological target: High affinity nerve growth factor receptor (Homo sapiens) (UniProt P04629); assay: Inhibition of recombinant human TrkA (440 to end residues) at 1 uM using KKKSPGEYVNIEFG as substrate after 40 mins in presence of [gamma-33P]ATP by scintillation counting method
[11] = biological target: Insulin receptor (Homo sapiens) (UniProt P06213); assay: Inhibition of recombinant human activated IR (1005 to 1310 residues) at 1 uM using KKKSPGEYVNIEFG as substrate after 40 mins in presence of [gamma-33P]ATP by scintillation counting method
[12] = biological target: Tyrosine-protein kinase Fer (Homo sapiens) (UniProt P16591); assay: Inhibition of recombinant human FER (541 to end residues) at 1 uM using KKKSPGEYVNIEFG as substrate after 40 mins in presence of [gamma-33P]ATP by scintillation counting method
[13] = biological target: Glycogen synthase kinase-3 alpha (Homo sapiens) (UniProt P49840); assay: Inhibition of recombinant human GSK3alpha (2 to end residues) at 1 uM using YRRAAVPPSPSLSRHSSPHQS(p)EDEEE (phospho GS2 peptide) as substrate after 40 mins in presence of [gamma-33P]ATP by scintillation counting method
[14] = biological target: Serine/threonine-protein kinase haspin (Homo sapiens) (UniProt Q8TF76); assay: Inhibition of recombinant human Haspin (471 to end residues) at 1 uM using RARTLSFAEPG as substrate after 40 mins in presence of [gamma-33P]ATP by scintillation counting method
[15] = biological target: Serine/threonine-protein kinase VRK2 (Homo sapiens) (UniProt Q86Y07); assay: Inhibition of recombinant human VRK2 (1 to 336 residues) at 1 uM using casein as substrate after 40 mins in presence of [gamma-33P]ATP by scintillation counting method
[16] = biological target: Protein kinase C delta type (Homo sapiens) (UniProt Q05655); assay: Inhibition of recombinant human PKCdelta (2 to end residues) at 1 uM using ERMRPRKRQGSVRRRV as substrate after 40 mins in presence of [gamma-33P]ATP by scintillation counting method
[17] = biological target: Serine/threonine-protein kinase 32A (Homo sapiens) (UniProt Q8WU08); assay: Inhibition of recombinant full-length human STK32A at 1 uM using casein as substrate after 120 mins in presence of [gamma-33P]ATP by scintillation counting method
[18] = biological target: CDK9/cyclin T1 (Homo sapiens) (UniProt O60563+P50750); assay: Inhibition of recombinant full-length human CDK9/Cyclin T1 at 1 uM using KTFCGTPEYLAPEVRREPRILSEEEQEMFRDFDYIADWC as substrate after 40 mins in presence of [gamma-33P]ATP by scintillation counting method; format: protein-complex assay
[19] = biological target: Phosphorylase b kinase gamma catalytic chain, skeletal muscle/heart isoform (Homo sapiens) (UniProt Q16816); assay: Inhibition of recombinant full-length human PhKgamma1 at 1 uM using KKLNRTLSFAEPG as substrate after 120 mins in presence of [gamma-33P]ATP by scintillation counting method
[20] = biological target: Dual specificity protein kinase CLK4 (Homo sapiens) (UniProt Q9HAZ1); assay: Inhibition of recombinant human CLK4 (128 to end residues) at 1 uM using YRRAAVPPSPSLSRHSSPHQS(p)EDEEE as substrate after 40 mins in presence of [gamma-33P]ATP by scintillation counting method
[21] = Metabolic stability in mouse liver microsomes assessed as compound remaining at 1 uM in presence of NADPH as cofactor measured after 30 mins by LC-MS/MS method; format: ADME, microsome; settings: read-out: Stability
[22] = biological target: Serine/threonine-protein kinase 35 (Homo sapiens) (UniProt Q8TDR2); assay: Inhibition of recombinant full-length human CLIK1 at 1 uM using RSRSRSRSRSRSRSR as substrate after 40 mins in presence of [gamma-33P]ATP by scintillation counting method
[23] = biological target: Mitogen-activated protein kinase kinase kinase 10 (Homo sapiens) (UniProt Q02779); assay: Inhibition of recombinant human MLK2 (1 to 449 residues) at 1 uM using myelin basic protein as substrate after 40 mins in presence of [gamma-33P]ATP by scintillation counting method
[24] = biological target: Phosphatidylinositol 3-kinase (Mus musculus) (UniProt P26450+P42337); assay: Inhibition of recombinant full-length mouse PI3K p110a/p85a at 1 uM using phosphatidylinositol 4,5-bisphosphate as substrate after 40 mins in presence of [gamma-33P]ATP by scintillation counting method; format: protein assay

Insulin-like growth factor 1 receptor (Homo sapiens), sequence (P08069 31-736 limits assumed): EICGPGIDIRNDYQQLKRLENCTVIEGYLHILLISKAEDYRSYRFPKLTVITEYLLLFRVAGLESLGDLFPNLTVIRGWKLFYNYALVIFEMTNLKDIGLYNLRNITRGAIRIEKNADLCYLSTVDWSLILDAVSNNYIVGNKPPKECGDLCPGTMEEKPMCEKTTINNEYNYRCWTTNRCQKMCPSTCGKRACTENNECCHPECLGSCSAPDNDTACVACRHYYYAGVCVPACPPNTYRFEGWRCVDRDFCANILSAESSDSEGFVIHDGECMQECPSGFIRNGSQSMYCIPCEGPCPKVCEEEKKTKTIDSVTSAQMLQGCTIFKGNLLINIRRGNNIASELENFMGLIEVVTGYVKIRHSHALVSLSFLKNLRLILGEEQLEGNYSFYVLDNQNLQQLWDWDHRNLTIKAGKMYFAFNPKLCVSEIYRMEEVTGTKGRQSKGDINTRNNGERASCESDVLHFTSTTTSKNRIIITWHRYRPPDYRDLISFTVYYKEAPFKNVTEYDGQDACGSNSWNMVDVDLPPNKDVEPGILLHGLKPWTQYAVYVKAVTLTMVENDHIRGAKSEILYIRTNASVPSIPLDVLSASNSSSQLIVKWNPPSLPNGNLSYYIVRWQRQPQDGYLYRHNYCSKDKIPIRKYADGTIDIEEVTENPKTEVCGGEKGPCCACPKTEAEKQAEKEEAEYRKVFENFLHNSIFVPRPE
Insulin-like growth factor 1 receptor (Homo sapiens), sequence (P08069 741-1367 limits assumed): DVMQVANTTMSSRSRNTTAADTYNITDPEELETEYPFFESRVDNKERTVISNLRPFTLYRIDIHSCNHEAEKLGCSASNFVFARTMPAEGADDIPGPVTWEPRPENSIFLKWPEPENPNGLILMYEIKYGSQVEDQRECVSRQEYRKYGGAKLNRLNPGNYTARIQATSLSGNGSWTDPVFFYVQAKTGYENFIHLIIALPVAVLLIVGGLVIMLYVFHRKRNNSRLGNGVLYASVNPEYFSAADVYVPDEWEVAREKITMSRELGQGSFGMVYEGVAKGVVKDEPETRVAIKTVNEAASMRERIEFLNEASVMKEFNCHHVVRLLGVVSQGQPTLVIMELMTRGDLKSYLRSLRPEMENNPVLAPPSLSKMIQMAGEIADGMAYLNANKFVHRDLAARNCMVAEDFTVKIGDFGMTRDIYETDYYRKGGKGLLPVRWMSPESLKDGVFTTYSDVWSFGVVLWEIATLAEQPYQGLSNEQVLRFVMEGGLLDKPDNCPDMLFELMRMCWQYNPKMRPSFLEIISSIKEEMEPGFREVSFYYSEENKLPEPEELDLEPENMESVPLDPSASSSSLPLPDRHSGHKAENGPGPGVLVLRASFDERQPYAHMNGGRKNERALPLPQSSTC
Insulin receptor (Homo sapiens), sequence (P06213 28-758 limits assumed): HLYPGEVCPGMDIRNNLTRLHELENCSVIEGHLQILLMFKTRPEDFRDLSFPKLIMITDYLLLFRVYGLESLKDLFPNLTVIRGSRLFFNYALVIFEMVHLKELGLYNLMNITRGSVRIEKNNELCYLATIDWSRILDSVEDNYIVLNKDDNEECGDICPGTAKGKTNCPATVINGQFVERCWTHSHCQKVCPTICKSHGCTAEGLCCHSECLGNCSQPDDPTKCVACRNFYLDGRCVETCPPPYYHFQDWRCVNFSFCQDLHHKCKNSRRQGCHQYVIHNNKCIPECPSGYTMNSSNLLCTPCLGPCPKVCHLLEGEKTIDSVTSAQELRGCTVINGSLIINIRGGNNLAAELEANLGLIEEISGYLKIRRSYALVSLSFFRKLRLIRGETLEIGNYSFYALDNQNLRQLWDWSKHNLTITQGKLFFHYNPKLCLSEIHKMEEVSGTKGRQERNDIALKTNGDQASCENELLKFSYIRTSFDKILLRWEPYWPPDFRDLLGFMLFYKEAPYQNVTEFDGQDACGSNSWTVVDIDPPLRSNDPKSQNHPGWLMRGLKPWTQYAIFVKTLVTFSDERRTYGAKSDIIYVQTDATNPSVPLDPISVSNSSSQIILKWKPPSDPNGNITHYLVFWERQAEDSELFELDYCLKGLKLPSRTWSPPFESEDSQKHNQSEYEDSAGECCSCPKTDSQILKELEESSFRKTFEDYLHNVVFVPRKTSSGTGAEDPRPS
Insulin receptor (Homo sapiens), sequence (P06213 763-1382 limits assumed): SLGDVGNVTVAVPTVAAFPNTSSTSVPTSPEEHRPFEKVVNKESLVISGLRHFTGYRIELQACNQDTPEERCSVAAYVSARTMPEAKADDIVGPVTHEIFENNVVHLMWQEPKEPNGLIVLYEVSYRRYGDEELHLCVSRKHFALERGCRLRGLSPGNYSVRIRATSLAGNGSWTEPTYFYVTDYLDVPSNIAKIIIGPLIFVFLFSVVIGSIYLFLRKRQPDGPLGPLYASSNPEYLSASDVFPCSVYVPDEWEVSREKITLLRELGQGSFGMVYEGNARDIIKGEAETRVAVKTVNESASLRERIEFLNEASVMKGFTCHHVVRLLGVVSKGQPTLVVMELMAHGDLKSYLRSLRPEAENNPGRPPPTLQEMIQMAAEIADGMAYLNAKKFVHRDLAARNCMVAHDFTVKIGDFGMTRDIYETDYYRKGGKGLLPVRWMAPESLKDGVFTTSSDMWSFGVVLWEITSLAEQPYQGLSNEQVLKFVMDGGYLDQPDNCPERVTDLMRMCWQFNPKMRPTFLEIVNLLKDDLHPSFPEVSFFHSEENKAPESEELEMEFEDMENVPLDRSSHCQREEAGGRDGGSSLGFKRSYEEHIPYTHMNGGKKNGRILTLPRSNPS
Serine/threonine-protein kinase 35 (Homo sapiens), sequence (Q8TDR2 whole entry, the tested form may be a part): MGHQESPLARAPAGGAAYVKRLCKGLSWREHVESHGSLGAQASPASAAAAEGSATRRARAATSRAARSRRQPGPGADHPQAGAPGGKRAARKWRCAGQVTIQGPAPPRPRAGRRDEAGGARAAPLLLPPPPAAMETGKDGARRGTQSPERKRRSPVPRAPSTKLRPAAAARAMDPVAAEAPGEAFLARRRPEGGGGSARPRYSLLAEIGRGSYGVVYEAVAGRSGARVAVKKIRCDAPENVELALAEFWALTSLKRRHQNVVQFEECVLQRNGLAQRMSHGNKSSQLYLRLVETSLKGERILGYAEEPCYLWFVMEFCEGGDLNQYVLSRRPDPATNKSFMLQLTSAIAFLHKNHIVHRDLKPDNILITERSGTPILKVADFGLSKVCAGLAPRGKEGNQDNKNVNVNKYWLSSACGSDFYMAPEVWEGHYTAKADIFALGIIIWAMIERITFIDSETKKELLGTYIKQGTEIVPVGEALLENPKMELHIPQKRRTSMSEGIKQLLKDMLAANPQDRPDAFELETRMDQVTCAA
Serine/threonine-protein kinase 32A (Homo sapiens), sequence (Q8WU08 whole entry): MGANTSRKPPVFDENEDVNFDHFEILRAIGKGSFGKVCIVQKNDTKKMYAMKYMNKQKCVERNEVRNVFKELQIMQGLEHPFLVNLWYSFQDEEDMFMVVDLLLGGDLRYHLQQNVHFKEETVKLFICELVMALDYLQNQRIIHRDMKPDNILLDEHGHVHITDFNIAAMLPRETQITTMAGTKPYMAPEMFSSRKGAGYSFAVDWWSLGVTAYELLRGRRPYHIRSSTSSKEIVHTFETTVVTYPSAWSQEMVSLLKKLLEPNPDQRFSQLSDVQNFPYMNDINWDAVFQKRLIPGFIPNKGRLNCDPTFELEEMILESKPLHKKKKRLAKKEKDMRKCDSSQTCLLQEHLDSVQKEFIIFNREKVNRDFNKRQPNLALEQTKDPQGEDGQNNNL
TRAF2 and NCK-interacting protein kinase (Homo sapiens), sequence (Q9UKE5 whole entry, looked up, the tested form may be a part): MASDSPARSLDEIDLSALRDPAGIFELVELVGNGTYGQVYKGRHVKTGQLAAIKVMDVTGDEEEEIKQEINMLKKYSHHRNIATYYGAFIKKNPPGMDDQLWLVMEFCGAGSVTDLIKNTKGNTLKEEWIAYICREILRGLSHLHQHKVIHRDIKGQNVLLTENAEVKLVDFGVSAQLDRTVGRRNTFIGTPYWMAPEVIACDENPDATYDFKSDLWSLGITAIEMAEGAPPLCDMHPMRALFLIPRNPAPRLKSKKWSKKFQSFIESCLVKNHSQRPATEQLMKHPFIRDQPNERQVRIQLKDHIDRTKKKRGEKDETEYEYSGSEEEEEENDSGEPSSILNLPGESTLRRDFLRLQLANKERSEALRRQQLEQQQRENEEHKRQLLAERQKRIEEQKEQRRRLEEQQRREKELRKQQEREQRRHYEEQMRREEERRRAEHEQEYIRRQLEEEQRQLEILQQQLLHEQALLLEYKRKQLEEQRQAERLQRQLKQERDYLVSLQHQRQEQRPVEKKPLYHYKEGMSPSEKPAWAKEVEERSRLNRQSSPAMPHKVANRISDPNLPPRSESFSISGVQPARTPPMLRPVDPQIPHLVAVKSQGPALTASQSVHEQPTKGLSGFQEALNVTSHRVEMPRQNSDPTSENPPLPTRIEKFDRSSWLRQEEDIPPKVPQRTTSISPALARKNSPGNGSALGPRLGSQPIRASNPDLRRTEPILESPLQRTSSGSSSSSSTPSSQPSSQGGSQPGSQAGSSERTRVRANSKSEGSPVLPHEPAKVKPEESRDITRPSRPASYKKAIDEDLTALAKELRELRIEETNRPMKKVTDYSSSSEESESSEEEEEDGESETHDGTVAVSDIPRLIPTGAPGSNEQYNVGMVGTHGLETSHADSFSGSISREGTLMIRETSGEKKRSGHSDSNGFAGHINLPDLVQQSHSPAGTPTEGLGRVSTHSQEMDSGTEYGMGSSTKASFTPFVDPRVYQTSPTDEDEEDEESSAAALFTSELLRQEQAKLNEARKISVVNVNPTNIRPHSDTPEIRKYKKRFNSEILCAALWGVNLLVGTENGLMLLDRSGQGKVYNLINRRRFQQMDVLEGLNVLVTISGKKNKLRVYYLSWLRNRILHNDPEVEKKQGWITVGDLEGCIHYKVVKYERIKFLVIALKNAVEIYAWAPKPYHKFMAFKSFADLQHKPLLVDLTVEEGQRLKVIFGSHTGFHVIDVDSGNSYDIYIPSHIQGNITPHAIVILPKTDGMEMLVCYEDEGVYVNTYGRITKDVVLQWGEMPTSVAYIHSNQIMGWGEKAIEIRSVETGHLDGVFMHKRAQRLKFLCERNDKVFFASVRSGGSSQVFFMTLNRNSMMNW

## CS(=O)(=O)c1ccc(-n2nc(-c3cnc4[nH]ccc4c3)c3c(N)ncnc32)cc1
[1]
  inhibition: 4%
[2]
  inhibition: 4%
[3]
  IC50: 66 nM
[4]
  inhibition: 5%
[5]
  inhibition: -9%
[6]
  inhibition: 5%
[7]
  inhibition: 9%
[8]
  inhibition: -2%
[9]
  inhibition: 11%
[10]
  inhibition: 2%
[11]
  inhibition: 14%
[12]
  inhibition: 1%
[13]
  inhibition: 17%
[14]
  inhibition: -9%
[15]
  inhibition: 0%
[16]
  inhibition: 1%
[17]
  inhibition: 6%
[18]
  inhibition: 7%
[19]
  inhibition: -4%
[20]
  inhibition: 11%
[21]
  remaining at 0.5 h, 1 µM: 79%
[22]
  inhibition: 3%
[23]
  inhibition: -1%
[24]
  inhibition: 10%
